Data as given in patent US9452980B2, “Substituted benzamides” (Hoffmann-La Roche Inc., priority 2009, dated 2016).
Counter-ions that a name gives are not always drawn. Like-named read-outs stand apart in the source and are kept apart here.

Legend:
mouse TAAR1 = mouse TAAR1 (Mus musculus (Mouse), UniProt Q923Y8); test: Radioligand binding assay on mouse TAAR1; conditions: read-out: Ki (μM) mouse
How it was run: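 Membranes were from HEK293 cells stably expressing mouse TAAR1. Compounds from 10 pM to 10 μM, in duplicate, competed with [3H]-(S)-4-[(ethyl-phenyl-amino)-methyl]-4,5-dihydro-oxazol-2-ylamine for 1 h at 4 °C. Nonspecific binding was defined with 10 μM unlabelled ligand, and bound radioactivity was read by filtration and scintillation.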

rat TAAR1 = rat TAAR1 (Rattus norvegicus (Rat), UniProt Q923Y9); test: Radioligand binding assay on rat TAAR1; conditions: read-out: Ki (μM) rat
rat TAAR1, sequence (Q923Y9 whole entry): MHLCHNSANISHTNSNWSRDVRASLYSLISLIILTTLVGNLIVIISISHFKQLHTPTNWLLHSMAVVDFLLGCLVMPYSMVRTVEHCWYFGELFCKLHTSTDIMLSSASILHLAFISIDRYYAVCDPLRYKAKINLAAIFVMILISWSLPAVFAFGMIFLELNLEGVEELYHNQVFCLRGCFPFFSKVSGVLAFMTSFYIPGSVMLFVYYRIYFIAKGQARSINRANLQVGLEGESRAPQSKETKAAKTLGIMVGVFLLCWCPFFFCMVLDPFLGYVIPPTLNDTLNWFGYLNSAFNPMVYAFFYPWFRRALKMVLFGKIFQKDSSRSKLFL
How it was run: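 Membranes from HEK293 cells stably expressing rat TAAR1, with Kd checked per batch by saturation. Competition with ³H-(S)-4-[(ethyl-phenyl-amino)-methyl]-4,5-dihydro-oxazol-2-ylamine, compounds 10 pM–10 μM in duplicate, 1 hr at 4 °C. Filtration then scintillation counting; nonspecific binding defined with 10 μM unlabeled ligand.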

[1] = rat TAAR1, HEK-293 membranes, second value of cell mouse/rat
[2] = mouse TAAR1, HEK-293 membranes, first value of cell mouse/rat

mouse TAAR1, sequence (Q923Y8 whole entry): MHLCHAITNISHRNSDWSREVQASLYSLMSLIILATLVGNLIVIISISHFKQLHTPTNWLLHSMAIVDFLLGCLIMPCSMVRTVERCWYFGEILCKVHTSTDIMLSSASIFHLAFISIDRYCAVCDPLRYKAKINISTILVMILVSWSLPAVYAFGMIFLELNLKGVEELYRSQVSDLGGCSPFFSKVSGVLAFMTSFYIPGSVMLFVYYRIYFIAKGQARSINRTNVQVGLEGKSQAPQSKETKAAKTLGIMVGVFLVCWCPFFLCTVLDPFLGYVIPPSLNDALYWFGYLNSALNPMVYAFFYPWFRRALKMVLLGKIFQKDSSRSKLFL

SMILES	Ki (mouse TAAR1) [µM]	Ki (rat TAAR1; [1]) [µM]	Ki (mouse TAAR1; [2]) [µM]	Ki (rat TAAR1) [µM]	other results
O=C(Nc1ccc([C@@H]2CCCNC2)cc1)c1cnc(Cl)cn1 [Example 238, 5-Chloro-pyrazine-2-carboxylic acid ((S)-4-piperidin-3-yl-phenyl)-amide hydrochloride]	1.12	0.0056			
O=C(Nc1ccc([C@H]2CCCNC2)cc1)c1cnc(Cl)cn1 [Example 239, 5-Chloro-pyrazine-2-carboxylic acid ((R)-4-piperidin-3-yl-phenyl)-amide hydrochloride]	0.0396	0.0085			
O=C(Nc1ccc([C@@H]2CCCNC2)cc1)OCc1ccc(Cl)cc1 [Example 240, (S)-4-chlorobenzyl 4-(piperidin-3-yl)phenylcarbamate hydrochloride]		0.0009	0.0146		
O=C(Nc1ccc([C@@H]2CCCNC2)cc1)c1ccc(C(F)(F)F)nc1 [Example 242, (S)—N-(4-(Piperidin-3-yl)phenyl)-6-(trifluoromethyl)nicotinamide hydrochloride]	0.037			0.0089	
Cc1ccc(C(=O)Nc2ccc([C@@H]3CCCNC3)cc2)cn1 [Example 243, (S)-6-Methyl-N-(4-(piperidin-3-yl)phenyl)nicotinamide hydrochloride]		0.0062	2.12		
CSc1ccc(C(=O)Nc2ccc([C@@H]3CCCNC3)cc2)cn1 [Example 244, (S)-6-(Methylthio)-N-(4-(piperidin-3-yl)phenyl)nicotinamide hydrochloride]	0.268	0.0049			
CCSc1cccc(C(=O)Nc2ccc([C@@H]3CCCNC3)cc2)c1 [Example 246, (S)-3-(Ethylthio)-N-(4-(piperidin-3-yl)phenyl)benzamide]		0.0012	0.0151		
O=C(Nc1ccc([C@@H]2CCCNC2)cc1)c1cnc(C(F)(F)F)cn1 [Example 248, (S)—N-(4-(Piperidin-3-yl)phenyl)-5-(trifluoromethyl)pyrazine-2-carboxamide hydrochloride]	0.188	0.0143			
O=C(Nc1ccc([C@@H]2CCCNC2)cc1)c1cnc(OCC(F)(F)F)cn1 [Example 250, (S)—N-(4-(Piperidin-3-yl)phenyl)-5-(2,2,2-trifluoroethoxy)pyrazine-2-carboxamide hydrochloride]		0.0056	0.288		
O=C(Nc1ccc([C@@H]2CCCNC2)cc1)c1cnc(Br)cn1 [Example 251, (S)-5-Bromo-N-(4-(piperidin-3-yl)phenyl)pyrazine-2-carboxamide 2,2,2-trifluoroacetate]			0.48	0.0054	
O=C(Nc1ccc([C@@H]2CCCNC2)cc1)c1ccc(Br)nc1 [Example 252, (S)-6-Bromo-N-(4-(piperidin-3-yl)phenyl)nicotinamide 2,2,2-trifluoroacetate]		0.0044	0.0783		
Cc1cccc(C(=O)Nc2ccc([C@@H]3CCCNC3)cc2)c1 [Example 253, (S)-3-Methyl-N-(4-(piperidin-3-yl)phenyl)benzamide]	0.36	0.0035			
CCOc1ccc(C(=O)Nc2ccc([C@@H]3CCCNC3)cc2)cn1 [Example 256, (S)-6-Ethoxy-N-(4-(piperidin-3-yl)phenyl)nicotinamide]		0.012	1.17		
CSc1cnc(C(=O)Nc2ccc([C@@H]3CCCNC3)cc2)cn1 [Example 257, (S)-5-(Methylthio)-N-(4-(piperidin-3-yl)phenyl)pyrazine-2-carboxamide]		0.004	0.786		
O=C(Nc1ccc([C@@H]2CCCNC2)cc1)OC1Cc2ccccc2C1 [Example 258, (S)-2,3-Dihydro-1H-inden-2-yl 4-(piperidin-3-yl)phenylcarbamate 2,2,2-trifluoroacetate]	0.0225	0.0062			
CSc1cccc(C(=O)Nc2ccc([C@@H]3CCCNC3)cc2)c1 [Example 259, (S)-3-(Methylthio)-N-(4-(piperidin-3-yl)phenyl)benzamide]			0.044	0.0009	
Cc1ccc(C(=O)Nc2ccc([C@H]3CCCNC3)cc2)cc1C [Example 260, (R)-3,4-Dimethyl-N-(4-(piperidin-3-yl)phenyl)benzamide hydrochloride]	0.016	0.0012			
O=C(Nc1ccc([C@H]2CCCNC2)cc1)c1cccc(C(F)(F)F)c1 [Example 261, (R)—N-(4-(Piperidin-3-yl)phenyl)-3-(trifluoromethyl)benzamide hydrochloride]			0.0027	0.0015	
O=C(Nc1ccc([C@@H]2CNCCO2)cc1)c1cccc(Cl)c1 [Example 262, (R)-3-Chloro-N-(4-(morpholin-2-yl)phenyl)benzamide hydrochloride]	0.0052			0.0013	

SMILES	Ki (mouse TAAR1) [µM]	Ki (rat TAAR1; [1]) [µM]	Ki (mouse TAAR1; [2]) [µM]	Ki (rat TAAR1) [µM]	other results
O=C(Nc1ccc([C@H]2CNCCO2)cc1)c1cccc(Cl)c1 [Example 263, (S)-3-Chloro-N-(4-(morpholin-2-yl)phenyl)benzamide hydrochloride]	0.0152			0.0011	
Cc1ccc(C(=O)Nc2ccc([C@H]3CCCNC3)cc2)cn1 [Example 264, (R)-6-Methyl-N-(4-(piperidin-3-yl)phenyl)nicotinamide hydrochloride]		0.0143	0.297		
O=C(Nc1ccc([C@H]2CCCNC2)cc1)c1ccc(C(F)(F)F)nc1 [Example 265, (R)—N-(4-(Piperidin-3-yl)phenyl)-6-(trifluoromethyl)nicotinamide hydrochloride]	0.0209			0.0059	
CSc1ccc(C(=O)Nc2ccc([C@@H]3CNCCO3)cc2)cc1 [Example 266, (R)-4-(Methylthio)-N-(4-(morpholin-2-yl)phenyl)benzamide hydrochloride]					Ki (mouse TAAR1; mouse TAAR1, HEK-293 membranes, first value of cell mouse/rat, hydrochloride): 0.0163 µM; Ki (rat TAAR1; hydrochloride): 0.0012 µM
O=C(Nc1ccc([C@@H]2CNCCO2)cc1)c1ccc(OCC(F)(F)F)nc1 [Example 268, (R)—N-(4-(Morpholin-2-yl)phenyl)-6-(2,2,2-trifluoroethoxy)nicotinamide hydrochloride]	0.002			0.0024	
O=C(Nc1ccc([C@H]2CNCCO2)cc1)c1ccc(OCC(F)(F)F)nc1 [Example 269, (S)—N-(4-(Morpholin-2-yl)phenyl)-6-(2,2,2-trifluoroethoxy)nicotinamide hydrochloride]	0.0099			0.003	
O=C(Nc1ccc([C@@H]2CNCCO2)cc1)c1cc(Cl)nc(Cl)c1 [Example 270, (R)-2,6-Dichloro-N-(4-(morpholin-2-yl)phenyl)isonicotinamide hydrochloride]	0.0049			0.0045	
O=C(Nc1ccc([C@H]2CNCCO2)cc1)c1cc(Cl)nc(Cl)c1 [Example 271, (S)-2,6-Dichloro-N-(4-(morpholin-2-yl)phenyl)isonicotinamide hydrochloride]	0.0067			0.004	
CCc1cnc(C(=O)Nc2ccc([C@@H]3CCCNC3)cc2)cn1 [Example 274, (S)-5-Ethyl-N-(4-(piperidin-3-yl)phenyl)pyrazine-2-carboxamide hydrochloride]		0.0174	2.51		
CCOc1ccc(C(=O)Nc2ccc([C@@H]3CNCCO3)cc2)cc1 [Example 275, (R)-4-Ethoxy-N-(4-(morpholin-2-yl)phenyl)benzamide hydrochloride]			0.0082	0.0036	
CCOc1ccc(C(=O)Nc2ccc([C@H]3CNCCO3)cc2)cc1 [Example 276, (S)-4-Ethoxy-N-(4-(morpholin-2-yl)phenyl)benzamide hydrochloride]			0.0558	0.0008	
CCCc1cnc(C(=O)Nc2ccc([C@@H]3CCCNC3)cc2)cn1 [Example 278, (S)—N-(4-(Piperidin-3-yl)phenyl)-5-propylpyrazine-2-carboxamide hydrochloride]	0.829	0.0118			
O=C(Nc1ccc([C@@H]2CCCNC2)cc1)c1cc(Cl)nc(Cl)c1 [Example 281, (S)-2,6-Dichloro-N-(4-(piperidin-3-yl)phenyl)isonicotinamide hydrochloride]		0.0014	0.0128		
Cc1cc(C(=O)Nc2ccc([C@@H]3CCCNC3)cc2)cc(Cl)n1 [Example 282, (S)-2-Chloro-6-methyl-N-(4-(piperidin-3-yl)phenyl)isonicotinamide]	0.243	0.0048			
O=C(Nc1ccc([C@@H]2CNCCO2)cc1)c1ccc(C(F)(F)F)nc1 [Example 283, (R)—N-(4-(Morpholin-2-yl)phenyl)-6-(trifluoromethyl)nicotinamide hydrochloride]			0.006	0.0059	
O=C(Nc1ccc([C@H]2CNCCO2)cc1)c1ccc(C(F)(F)F)nc1 [Example 284, (S)—N-(4-(Morpholin-2-yl)phenyl)-6-(trifluoromethyl)nicotinamide hydrochloride]	0.0128			0.005	
Cc1cc(C(=O)Nc2ccc([C@@H]3CNCCO3)cc2)cc(Cl)n1 [Example 285, (R)-2-Chloro-6-methyl-N-(4-(morpholin-2-yl)phenyl)isonicotinamide hydrochloride]	0.0082	0.005			
Cc1cc(C(=O)Nc2ccc([C@H]3CNCCO3)cc2)cc(Cl)n1 [Example 286, (S)-2-Chloro-6-methyl-N-(4-(morpholin-2-yl)phenyl)isonicotinamide hydrochloride]	0.0222	0.0044			
CCCc1ccc(C(=O)Nc2ccc([C@@H]3CCCNC3)cc2)cn1 [Example 289, (S)—N-(4-(Piperidin-3-yl)phenyl)-6-propylnicotinamide]			0.143	0.0027	
